The test system of one test is 518A2. Nature of the test: Cytotoxicity against human 518A2 cells after 72 hrs by MTT assay. It counts as functional, cell-based. Particulars: for IC50: 518A2, 72 h.
The next test has as its system HT-29. Nature of the test: Cytotoxicity against human HT-29 cells after 72 hrs by MTT assay. It is filed as functional, cell-based. Particulars: for IC50: HT-29, 72 h.
The next test relates to HCT-116. Nature of the test: Cytotoxicity against human HCT116 cells after 72 hrs by MTT assay. It is filed as functional, cell-based. Particulars: for IC50: HCT-116, 72 h.
The test system of the next test is DLD-1. Nature of the test: Cytotoxicity against human DLD1 cells after 72 hrs by MTT assay. It counts as functional, cell-based. Particulars: for IC50: DLD-1, 72 h.
In another test the test system is PANC-1. Nature of the test: Cytotoxicity against human PANC1 cells after 72 hrs by MTT assay. It counts as functional, cell-based. To be noted: for IC50: PANC-1, 72 h. In general terms: Tetrazolium assays rely on reduction of a dye to a coloured formazan, in cell work by metabolically active cells.
A short description of test [1]: (§1) Cytotoxicity against human KB-V1/Vbl cells after 72 hrs by MTT assay. It counts as functional, cell-based.
For a further test, the system named is KB-V1/Vbl. The test is described as §1. It counts as functional, cell-based.
Test [2] is described as follows: (§2) Cytotoxicity against human MCF7/Topo cells after 72 hrs by MTT assay. It is filed as functional, cell-based.
A further test concerns MCF7/Topo. The description is as §2. It is filed as functional, cell-based.
Test [3] in a line: (§3) Cytotoxicity against human U87 cells after 72 hrs by MTT assay. It counts as functional, cell-based, U-87MG ATCC. Particulars: U-87 MG.
In another test the test system is U-87MG ATCC. Described as §3. It is filed as functional, cell-based.

Usually IC50 stands for the concentration needed to halve the response being measured. Read a low IC50 as greater potency.

The structures appear in SMILES notation.

Consider `CCN1C/C(=C\c2cc(F)cc(F)c2)C(=O)/C(=C/c2cc(F)cc(F)c2)C1`, for which the Activity entry in the test with 518A2, in the test on HT-29, with HCT-116, with DLD-1, with PANC-1 and in the test on KB-V1/Vbl was “Dose-dependent effect” in each case. Further, in the test on MCF7/Topo, the Activity entry was “Dose-dependent effect”. Moreover, the IC50 in the test with 518A2 came out at 3300 nM; with HT-29, 2100 nM; in the test with HCT-116, 550 nM; in the test with DLD-1 it was 640 nM; in the test with PANC-1, 1100 nM; in test [1] it was 2700 nM. Further, half-maximal inhibition in [2] (IC50) was put at 1000 nM.

Take `CCN1C/C(=C\c2ccccc2F)C(=O)/C(=C/c2ccccc2F)C1`: the Activity result in the test with 518A2, in the test on HT-29, in the test with HCT-116, in the test on DLD-1, in the test on PANC-1 and with KB-V1/Vbl was “Dose-dependent effect” in each case. In addition, the Activity entry in the test with MCF7/Topo is “Dose-dependent effect”. In addition, the IC50 in the test on 518A2 was found to be 1800 nM; with HT-29, 5200 nM; with HCT-116, 1800 nM; with DLD-1, 930 nM; with PANC-1 it was 1700 nM; in [1], 3100 nM. This compound also yielded an IC50 in test [2] of 2000 nM.

On to `CCN1C/C(=C\c2c(F)cc(F)cc2F)C(=O)/C(=C/c2c(F)cc(F)cc2F)C1`, for which the Activity result in the test with 518A2, in the test with HT-29, in the test with HCT-116, with DLD-1, with PANC-1 and in the test with KB-V1/Vbl was “Dose-dependent effect” throughout. Also, in the test on MCF7/Topo, the Activity result was “Dose-dependent effect”. In addition, the IC50 stood at 2000 nM in the test with 518A2; 2000 nM with HT-29; 1100 nM in the test with HCT-116; 1400 nM in the test with DLD-1; 1300 nM in the test with PANC-1; 1200 nM in [1]. The IC50 in [2] was 2100 nM.

For the compound `CCN1C/C(=C\c2cc(F)c(F)cc2F)C(=O)/C(=C/c2cc(F)c(F)cc2F)C1`, the Activity result in the test on 518A2, with HT-29, in the test on HCT-116, in the test with DLD-1, with PANC-1 and with KB-V1/Vbl was “Dose-dependent effect” each time. Moreover, in the test on MCF7/Topo, the Activity result was “Dose-dependent effect”. For the same compound, the IC50 in the test with 518A2 came out at 1500 nM; with HT-29 it was 690 nM; with HCT-116, 510 nM; in the test on DLD-1 it was 520 nM; in the test with PANC-1 it was 830 nM; in test [1], 640 nM. The compound further returned an IC50 in test [2] of 1100 nM.

On to `CN1C/C(=C\c2ccc(F)c(F)c2)C(=O)/C(=C/c2ccc(F)c(F)c2)C1`, for which the Activity result in the test on 518A2, in the test with HT-29, in the test on HCT-116, in the test on DLD-1, in the test on PANC-1 and with KB-V1/Vbl was “Dose-dependent effect” each time. Also, the Activity entry in the test on MCF7/Topo is “Dose-dependent effect”. Further, the IC50 with 518A2 was 1500 nM; in the test on HT-29, 1500 nM; in the test with HCT-116 it was 510 nM; in the test on DLD-1 it was 470 nM; in the test on PANC-1, 1500 nM; in [1] it was 990 nM. For the same compound, the IC50 in test [2] is 1300 nM.

Turning to `O=C1/C(=C/c2ccc(S(F)(F)(F)(F)F)cc2)CCC/C1=C\c1ccc(S(F)(F)(F)(F)F)cc1`, the Activity entry in the test on 518A2, with HT-29, with HCT-116, in the test on DLD-1, with PANC-1 and in the test on KB-V1/Vbl was “Dose-dependent effect” each time. Besides, the Activity entry in the test on MCF7/Topo and in the test on U-87MG ATCC was “Dose-dependent effect” each time. Also, the IC50 is 1800 nM in the test with 518A2; 1100 nM in the test on HT-29; 710 nM in the test with HCT-116; 860 nM in the test on DLD-1; 2000 nM in the test with PANC-1; 1900 nM in test [1]. Further, the IC50 in [2] was determined as 1800 nM; in test [3] it was 3200 nM.

With `CCN1C/C(=C\c2ccc(F)cc2F)C(=O)/C(=C/c2ccc(F)cc2F)C1`, the Activity entry in the test on 518A2, in the test on HT-29, with HCT-116, in the test with DLD-1, in the test with PANC-1 and in the test on KB-V1/Vbl was “Dose-dependent effect” throughout. Moreover, in the test with MCF7/Topo, the Activity entry was “Dose-dependent effect”. The half-inhibitory concentration (IC50) was 2400 nM in the test on 518A2; 3100 nM in the test with HT-29; 2000 nM in the test on HCT-116; 960 nM in the test with DLD-1; 2300 nM with PANC-1; 1200 nM in test [1]. The compound also had an IC50 in test [2] of 1800 nM.

For the compound `O=C1/C(=C/c2ccc(S(F)(F)(F)(F)F)cc2)CSC/C1=C\c1ccc(S(F)(F)(F)(F)F)cc1`, the Activity result in the test on 518A2, in the test on HT-29, in the test with HCT-116, with DLD-1, in the test with PANC-1 and in the test on KB-V1/Vbl was “Dose-dependent effect” each time. Besides, the Activity entry with MCF7/Topo and in the test on U-87MG ATCC was “Dose-dependent effect” throughout. Moreover, the IC50 in the test on 518A2 was 850 nM; with HT-29, 980 nM; with HCT-116, 640 nM; with DLD-1, 750 nM; in the test with PANC-1, 840 nM; in [1] it was 570 nM. In addition, the 50% inhibitory concentration (IC50) in test [2] is 760 nM; in [3], 2100 nM.

`CN1C/C(=C\c2ccccc2F)C(=O)/C(=C/c2ccccc2F)C1`: the Activity entry in the test on 518A2, in the test with HT-29, with HCT-116, in the test with DLD-1, in the test on PANC-1 and in the test on KB-V1/Vbl was “Dose-dependent effect” throughout. Besides, the Activity entry with MCF7/Topo was “Dose-dependent effect”. Also, the IC50 was 1800 nM in the test on 518A2; 2200 nM in the test with HT-29; 1300 nM with HCT-116; 810 nM with DLD-1; 2200 nM in the test with PANC-1; 1800 nM in [1]. The midpoint of inhibition in [2], the IC50, lay at 2300 nM.

Turning to `O=C(/C=C/c1ccc(S(F)(F)(F)(F)F)cc1)/C=C/c1ccc(S(F)(F)(F)(F)F)cc1`, the Activity result in the test on 518A2, in the test on HT-29, in the test with HCT-116, with DLD-1, in the test on PANC-1 and in the test on KB-V1/Vbl was “Dose-dependent effect” in each case. Further, the Activity result in the test with MCF7/Topo and in the test with U-87MG ATCC was “Dose-dependent effect” in each case. Moreover, the IC50 was 4400 nM in the test on 518A2; 1800 nM in the test on HT-29; 1000 nM in the test on HCT-116; 3200 nM with DLD-1; 3100 nM in the test with PANC-1; 3600 nM in [1]. Further, the IC50 in test [2] came out at 3400 nM; in test [3], 8700 nM.

As to `O=C1/C(=C/c2ccc(F)c(F)c2)CSC/C1=C\c1ccc(F)c(F)c1`, the Activity entry in the test on 518A2, in the test with HT-29, in the test on HCT-116, in the test with DLD-1, in the test with PANC-1 and in the test on KB-V1/Vbl was “Dose-dependent effect” each time. Besides, the Activity entry in the test with MCF7/Topo and with U-87MG ATCC was “Dose-dependent effect” in each case. Also, the 50% inhibitory concentration (IC50) is 1500 nM in the test on 518A2; 1300 nM in the test on HT-29; 2000 nM with HCT-116; 1800 nM in the test on DLD-1; 2100 nM in the test on PANC-1; 760 nM in [1]. Moreover, the IC50 turned out to be 1600 nM in [2] and 2300 nM in test [3].
